For data set [1], the target named is T1, Protein S/APC cofactor activity (Homo sapiens, UniProt P07225).
T1 construct: host or cells: plasma
T1 sequence (P07225 41-676 limits assumed): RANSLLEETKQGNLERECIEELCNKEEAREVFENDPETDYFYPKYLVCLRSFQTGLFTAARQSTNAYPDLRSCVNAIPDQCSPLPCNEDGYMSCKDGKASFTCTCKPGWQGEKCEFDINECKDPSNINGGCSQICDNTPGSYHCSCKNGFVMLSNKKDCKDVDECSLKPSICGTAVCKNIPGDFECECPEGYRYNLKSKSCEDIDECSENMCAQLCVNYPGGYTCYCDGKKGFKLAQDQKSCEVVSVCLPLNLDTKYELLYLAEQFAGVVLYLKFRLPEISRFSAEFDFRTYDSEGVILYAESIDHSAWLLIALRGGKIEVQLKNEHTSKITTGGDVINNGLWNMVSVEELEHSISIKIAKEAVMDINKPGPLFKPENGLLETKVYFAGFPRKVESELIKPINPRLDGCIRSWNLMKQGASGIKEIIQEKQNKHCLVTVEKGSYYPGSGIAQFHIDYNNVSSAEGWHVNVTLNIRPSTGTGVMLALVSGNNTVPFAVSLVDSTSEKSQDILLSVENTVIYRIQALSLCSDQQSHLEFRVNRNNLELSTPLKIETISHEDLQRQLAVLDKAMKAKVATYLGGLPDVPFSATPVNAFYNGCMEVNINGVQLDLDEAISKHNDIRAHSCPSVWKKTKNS
Briefly: CAT assay in pooled normal plasma supplemented with 3 nM APC. It counts as biochemical. Conditions: 6 pM TF, 15 μM phospholipids. The protocol:
Peptides also were tested for improvement of Protein S/APC-dependent thrombin generation in hemophilic plasma using a CAT assay. Protein S enhances the anticoagulation of APC in plasma. The CAT assay quantifies the effect of Protein S on APC-mediated thrombin generation initiated via the extrinsic coagulation pathway (Nicolaes, Blood Coagul. Fibrinolysis, 8:28 (1997)). APC (35 nM) and Protein S (25 nM) was added to Protein 5-depleted plasma, and plasma samples were incubated with high titer heat inactivated anti-human FVIII plasma raised in goat (4490 BU/ml; Baxter BioScience, Vienna, Austria; 50 BU/ml final plasma concentration). Thrombin formation in plasma was followed by calibrated automated thrombography (CAT) in a Fluoroskan Ascent® reader (Thermo Labsystems, Helsinki, Finland) and quantified via the thrombin peak-height. Thrombin generation was determined at high tissue factor (TF) concentration in the absence and in the presence of APC at a concentration that reduces the peak height to 20%. The inhibitory effect of peptides described herein on the APC cofactor activity of Protein S (PS) in plasma was measured in FVIII-inhibited pooled normal plasma supplemented with APC. Complete (100%) Protein S/APC inhibition is the height of the thrombin peak without addition of APC. Lack of (0%) PS/APC inhibition correlates to the thrombin peak-height value with a certain amount of APC. Peptides were ranked by their normalized values in comparison to the mean of wild-type controls including SD at two defined peptide concentrations (EC50 and EC90). […] For the assays, pooled normal plasma was supplemented with 3 nM APC and triggered with 6 pM TF, and 15 μM phospholipids (DOPC/POPS 80/20). Stock APC was diluted with TF-PL-MIX to 24 nM (plasma concentration: 3 nM).

The target of another data set is T2, Protein S (Homo sapiens, UniProt P07225).
T2 sequence (P07225 41-676 limits assumed): T1 sequence (P07225 41-676 limits assumed)
Put plainly: LANCE IC50 assay (competition TR-FRET) with tracer JBS0684. It counts as binding. Conditions: Table 4, multiple substitutions in JBS2572; read-out: LANCE IC50. On the procedure:
Peptides also were characterized in a competition, homogenous europium-based TR-FRET assay (LANCE IC50 assay) using JBS0684 as a tracer (i.e., competitor for Protein S binding). The following reagents were mixed together in a Perkin-Elmer ProxiPlate MTP well (indicated concentration is the final concentration): Eu-labeled Protein S (10 nM), Ulight™-labeled Streptavidin (100 nM), tracer (JBS0684 (300 nM)), and peptide (titrated in three-fold dilution steps). The final volume was 50 μl/well. The reaction mix was incubated for 1 hour at room temperature, then the fluorescence emission at 665 nm was recorded on a multi-mode reader (SpectraMax® M5, Molecular Devices) using the following instrument settings: Ex 340 nm, Em 665 nm, delay 50 μsec, integration 100 μsec, reads 100. Binding of tracer peptides to soluble europium-labeled Protein S was detected by Streptavidin labeled with an acceptor fluorophor (ULight™). Inhibition of tracer-binding to Protein S by a non-biotinylated peptide results in a decrease of TR-FRET between the Eu-labeled Protein S and ULight™-labeled Streptavidin. IC50 values were obtained from peptide titration curves at constant tracer concentration using non-linear regression of the fluorescence emission signals at 665 nm.
Background: Time-resolved FRET reads energy transfer from a long-lived donor to a nearby acceptor.

A short description of data set [2]: plasma stability in mouse plasma. It counts as in vitro ADME. Conditions: 37° C. The protocol:
(§1) Affinity and activity of all 18 peptides was improved compared to parent JBS2572. […] Activity and stability were improved up to 1.5-fold. Plasma stability was determined in pooled normal human plasma and mouse plasma at 37° C.; exemplary results also are provided in Table 3.

Data set [3] concerns Protein S/APC dependent thrombin generation. Put plainly: CAT assay in plasmas from individuals with severe hemophilia A. It counts as biochemical, human. The following applies: plasma of severe hemophilia A patients.
A further data set addresses T3, C4BP/PS complex (Homo sapiens, UniProt P07225).
T3 sequence (P07225 41-676 limits assumed): T1 sequence (P07225 41-676 limits assumed)
Put plainly: LANCE IC50 assay on preformed C4BP/PS complex. Conditions: two hours of incubation, 100 nM peptide. It counts as binding. The protocol: To investigate the effect of the peptides described herein on PS/C4BP complexes, a LANCE IC50 assay was established using methods similar to those described above. JBS2572 or JBS3216 was added to a preformed C4BP/PS complex. Changes in the complex concentration were followed by recording the TR-FRET signal. For both peptides, a time- and concentration-dependent dissociation of the C4BP/PS complex was observed. The IC50 of JBS3216 was 0.3 nM, and the IC50 of JBS2572 was 2 nM. The time-dependency of the complex reduction was similar for both peptides. After two hours of incubation in the presence of 100 nM JBS2572 or JBS3216, the C4BP/PS complex was reduced to 60% and 50%, respectively. In addition, binding of biotinylated JBS2572 to Protein S was inhibited by C4BP in the LANCE IC50 assay. Pull-down experiments where JBS2697 was coupled to streptavidin sepharose and incubated for one hour at room temperature with (a) Protein S (1.6 pmol) (b) C4BP (8.5 pmol) and (c) Protein S (1.6 pmol)+C4BP (8.5 pmol) supported the results from the modified LANCE IC50 assay.

Data set [4] can be described thus: plasma stability in pooled normal human plasma. It counts as in vitro ADME. On the procedure: as §1
For data set [5], the target named is T4, human full-length Protein S (Homo sapiens, UniProt P07225).
T4 construct: using human full-length Protein S and human GAS6
T4 sequence (P07225 41-676 limits assumed): T1 sequence (P07225 41-676 limits assumed)
Put plainly: Biacore (surface plasmon resonance) on immobilized Protein S. The following applies: Biacore. It counts as binding. On the procedure: Protein S affinity also was determined via Biacore (Biacore 3000 or Biacore T200) using human full-length Protein S and human GAS6. Briefly, 1000 RU of Protein S or GAS6 were immobilized on a CMS chip. In order to probe the kinetics of Protein S binding peptides to Protein S, the peptides were injected at various concentrations in a HBS-buffer containing 3 mM CaCl2 and 1% DMSO to the flow cell and allowed to interact with the immobilized proteins on the sensor chip. The chip could be regenerated with 4 M MgCl2 in HBS-buffer. Sensorgrams were fitted to a Langmuir binding model for the determination of kon and koff and the calculation of KD. Peptides were tested on their specificity to Protein S with peptide binding studies on the anti-target GAS6.
Background: SPR reads the build-up and loss of mass on a sensor chip optically.

In another data set the test system is thrombin generation. Put plainly: thrombin generation in non-human mammals. It counts as biochemical. Conditions: cynomolgous monkey, marmoset monkey, pig, sheep, dog, rabbit, rat, and mouse.

The structures appear in SMILES notation. Non-standard residues stand in square brackets, D forms with d. Residues, ends and D or L forms follow the SMILES beside them. Tle = CC(C)(C)[C@H](N)C(=O)O

A word on the EC50: it is the concentration that produces a half-maximal response. Lower therefore signals an effect from little substance. As usually defined, the IC50 is the midpoint of a concentration-inhibition curve. Regarding `CSCC[C@H](NC(=O)[C@H](Cc1ccc(O)cc1)NC(=O)[C@H](Cc1c[nH]cn1)NC(=O)[C@H](CC(=O)O)NC(=O)[C@H](Cc1ccccc1)NC(=O)[C@H](CC(N)=O)NC(=O)[C@H](Cc1ccc(O)cc1)NC(=O)[C@H](CC(=O)O)NC(=O)[C@H](Cc1ccc(O)cc1)NC(=O)[C@H](Cc1c[nH]c2ccccc12)NC(=O)CNC(=O)[C@H](C)NC(=O)[C@H](CO)NC(=O)[C@@H](NC(=O)[C@H](CC(C)C)NC(=O)CNC(=O)[C@H](Cc1ccc(O)cc1)NC(C)=O)C(C)C)C(=O)N[C@@H](CCC(=O)O)C(=O)N[C@@H](Cc1ccccc1)C(=O)N[C@H](C(N)=O)[C@@H](C)O` [JBS3196] (Ac-YGLVSAGWYDYNFDHYMEFT-NH2), in data set [1], the response was half-maximal at 155 nM (EC50). Also, the concentration for half-maximal inhibition (IC50) at Protein S came out at 2.2 nM.

In data set [1], `CSCC[C@H](NC(=O)[C@H](Cc1ccc(O)cc1)NC(=O)[C@@H](NC(=O)[C@H](CC(=O)O)NC(=O)[C@H](CC(N)=O)NC(=O)[C@H](CC(N)=O)NC(=O)[C@H](Cc1ccc(O)cc1)NC(=O)[C@H](CC(=O)O)NC(=O)[C@H](Cc1ccc(O)cc1)NC(=O)[C@H](Cc1c[nH]c2ccccc12)NC(=O)CNC(=O)[C@H](C)NC(=O)[C@H](CCC(=O)O)NC(=O)[C@@H](NC(=O)[C@H](CC(C)C)NC(=O)CNC(=O)[C@H](Cc1ccc(O)cc1)NC(C)=O)C(C)C)[C@@H](C)O)C(=O)N[C@@H](CCC(=O)O)C(=O)N[C@@H](Cc1ccccc1)C(=O)N[C@H](C(N)=O)[C@@H](C)O` [JBS3201] (Ac-YGLVEAGWYDYNNDTYMEFT-NH2) displayed a concentration for a half-maximal effect (EC50) of 127 nM. The 50% inhibitory concentration (IC50) at Protein S is 1.9 nM.

The molecule `CSCC[C@H](NC(=O)[C@H](Cc1ccc(O)cc1)NC(=O)[C@H](Cc1c[nH]cn1)NC(=O)[C@H](CC(=O)O)NC(=O)[C@H](Cc1ccccc1)NC(=O)[C@H](CC(N)=O)NC(=O)[C@H](Cc1ccc(O)cc1)NC(=O)[C@H](CC(=O)O)NC(=O)[C@H](Cc1ccc(O)cc1)NC(=O)[C@H](Cc1c[nH]c2ccccc12)NC(=O)CNC(=O)[C@H](C)NC(=O)[C@H](CO)NC(=O)[C@@H](NC(=O)[C@H](CC(C)C)NC(=O)CNC(=O)[C@@H](NC(C)=O)[C@@H](C)O)C(C)(C)C)C(=O)N[C@@H](CCC(=O)O)C(=O)N[C@@H](Cc1ccccc1)C(=O)N[C@H](C(N)=O)[C@@H](C)O` [JBS3203, Ac-TGL-Tle-SAGWYDYNFDHYMEFT-NH2] (Ac-TGL[Tle]SAGWYDYNFDHYMEFT-NH2) showed a concentration for a half-maximal effect (EC50) in data set [1] of 127 nM. Also, the half-inhibitory concentration (IC50) at Protein S came to 1.8 nM.

Usually koff stands for the first-order rate constant of dissociation. What is called kon is the second-order rate constant of association. As usually defined, the Kd is the free concentration of one partner at which half of the binding sites on the other are occupied at equilibrium, for simple one-to-one binding. On to `CC(=O)N[C@@H](CCC(=O)O)C(=O)N[C@@H](Cc1ccc(O)cc1)C(=O)N[C@@H](Cc1ccc(O)cc1)C(=O)N[C@H](C(=O)N[C@@H](CO)C(=O)N[C@@H](C)C(=O)NCC(=O)N[C@@H](Cc1c[nH]c2ccccc12)C(=O)N[C@@H](Cc1ccc(O)cc1)C(=O)N[C@@H](CC(=O)O)C(=O)N[C@@H](Cc1ccc(O)cc1)C(=O)N[C@@H](CC(N)=O)C(=O)N[C@H](C(=O)N[C@@H](CC(=O)O)C(=O)N[C@H](C(=O)N[C@@H](Cc1ccc(O)cc1)C(=O)N[C@@H](Cc1ccc(O)cc1)C(=O)N[C@@H](CCC(=O)O)C(=O)N[C@@H](Cc1ccccc1)C(=O)N[C@@H](CCC(=O)O)C(N)=O)[C@@H](C)O)[C@@H](C)O)C(C)C` [JBS3216] (Ac-EYYVSAGWYDYNTDTYYEFE-NH2), for which the “Stability in mouse plasma; 4 hours [%]” value in data set [2] is listed as 66 ± 23%. This molecule had a concentration for a half-maximal effect (EC50) in data set [3] of 85 nM. Further, the “C4BP/PS complex reduced to” value at C4BP/PS complex worked out at 50%. Besides, the “binding activity remaining after incubation in human plasma” value in data set [4] (24 hours of incubation in human plasma) is recorded as 50%. In addition, in data set [4] (pooled normal human plasma, 37° C., 6 hours), the “Stability in human plasma; 6 hours [%]” value was found to be 80 ± 2%. In data set [5] (Table 3, read-out: koff), the koff stood at 0.000233 s⁻¹. The kon in data set [5] (Table 3, read-out: kon) is 1.14e+06 M⁻¹ s⁻¹. Besides, the Kd in data set [5] (affinity-matured and modified peptides, read-out: KD) came out at 0.2 nM. The “thrombin generation in non-human mammals” value with thrombin generation is on record as “improved thrombin generation”.

The values are drawn from patent publication US10124033B2, “Peptides and methods of use” (BAXALTA INCORPORATED, priority 2014, dated 2018).
